In US20080206231A1, “Compositions and Methods for Treating Disease” (OREGON HEALTH AND SCIENCE UNIVERSITY, priority 2004, published 2008):

Columns and labels:
insulin receptor = test: EGFR inhibitor study: insulin receptor level in MCF-7 cells; type: cell-based, human; settings: 24-hour treatment in regular growth medium, FIG. 6
Description: (§1) Control MCF-7 cells were serum-starved overnight and treated with the EGFR kinase inhibitor AG1478 (Sigma) or vehicle (DMSO) for 5 minutes prior to the addition of 14 nM EGF or 10 nM insulin (Sigma). After growth factor treatment, cell lysates were prepared and analyzed for ERK and Akt/PKB activation as described above. The 24-hour treatment was done in regular growth medium.

insulin signaling = test: EGFR inhibitor study: insulin signaling (ERK and Akt/PKB activation) in control MCF-7 cells; type: cell-based, human; settings: inhibitor 5 minutes prior to 10 nM insulin, FIG. 5
Description: as §1

MAPK kinase (MEK) = settings: Harmon et al., 2004; cited from earlier work
IGF-IR = target: T1, IGF-IR (Homo sapiens, UniProt P08069); test: IGF-IR expression, Western immunoblot in MCF-7 cells; type: cell-based; settings: Herstatin-expressing MCF-7 cells vs control
T1 construct: Lysates from control and Herstatin-expressing MCF-7 cells were prepared from respective untreated (no insulin) cells; endogenous in cells; host or cells: MCF-7 (control and Herstatin-expressing clones)
Description: (§2) Western blot analysis, and antibodies. For Western blot analyses, whole-cell lysates or immunoprecipitated proteins were resolved by SDS-PAGE and transferred onto nitrocellulose membranes (BioRad, Hercules, Calif.). Blots were blocked in 5% milk and incubated with primary antibody overnight at 4° C. The antibodies included anti-insulin receptor (IR; against the β subunit), anti-IGF-IR, anti-IRS-1, anti-IRS-2, anti-phosphotyrosine, anti-phospho-Akt, anti-Akt, anti-phospho-ERK, anti-ERK, and anti-Shc antibodies (Santa Cruz Biotechnology, Transduction Laboratories, Cell Signaling Technologies, Upstate Laboratories, or Biosource). After washing, the blots were incubated with secondary antibody conjugated to HRP for 30 min (BioRad, Hercules, Calif.). The membranes were developed with SuperSignal™ West Dura (Pierce, Rockford, Ill.) and exposed to x-ray film.
(§3) Results. […] Lysates from control and Herstatin-expressing MCF-7 cells were prepared from respective untreated (no insulin) cells following overnight incubation in serum-free media, and processed directly or (in the case of the IR) also immunoprecipitated prior to Western immunoblot analysis as described in relation to FIG. 2.

[1] = system: IRS-1, IRS-2, Shc, ERK1 and ERK2; test: Expression/phosphorylation state of insulin signaling proteins (IRS-1, IRS-2, Shc, ERK) in MCF-7 cells; type: cell-based, human; settings: Herstatin-expressing MCF-7 cells vs control, no insulin
Description: as §2, §3

insulin receptor (IR) [2] = target: T2, insulin receptor (IR) (Homo sapiens, UniProt P06213); test: Herstatin cell binding ELISA on IRA-3T3 cells; parameters: expressed in transfected cells; host or cells: NIH-3T3 (IRA-3T3); settings: 3T3 cells transfected with human IR cDNA (IRA-3T3), purified Herstatin from S2 insect cells, 2 hrs on ice
Description: (§4) ELISA. Monolayer cultures of ˜2×10^6 cells were plated in 6-well tissue culture plates, and were incubated with purified Herstatin for 2 hours at 4° C. in serum-free DMEM. Cells were washed with Phosphate Buffered Saline (PBS) and extracted in 50 mM Tris·HCl, pH 7.0, 1.0% NP-40. Herstatin bound to cells were quantified using a sandwich Herstatin ELISA per manufacturer's instructions (Upstate Biotechnology, Lake Placid, N.Y.).
(§5) The dissociation constant (KD) and maximal binding (Bmax) of Herstatin were determined by nonlinear regression analysis of the plot of pmol of bound versus nM of Herstatin added. Statistical comparisons between different binding curves were performed by extra sums-of-squares F-test nonlinear regression coefficients. All tests were performed (α=0.05) using GraphPad™ Prism 4™ software (GraphPad™ Software, 1994-2003).
(§6) Results. The interaction between Herstatin and IR was investigated. […] Increasing concentrations of Herstatin, expressed and purified from stably-transfected S2 insect cells, were added to 3T3 parental cells (filled triangles; “NIH-3T3”) or 3T3 cells transfected with a human IR cDNA (filled squares; “IRA-3T3”) as previously described (Shamieh et al., FEBS Letters, 568:163-166, 2004). After incubation for 2 hrs on ice, the cells were washed twice with PBS, and the bound Herstatin was quantified using a Herstatin ELISA (Upstate). […]

P13K/Akt pathway = test: Insulin-stimulated Akt activation in MCF-7 cells; type: cell-based, human; settings: Herstatin-expressing MCF-7 cells vs control
Description: as §2, with “After washing, the blots were incubated with secondary antibody conjugated to HRP for 30 min (BioRad, Hercules, Calif.). The membranes were developed with SuperSignal™ West Dura (Pierce, Rockford, Ill.) and exposed to x-ray film.” left out
Results. […] Insulin was then added to the control and Herstatin-expressing cells and whole-cell lysates were prepared at the indicated times and processed directly for Western immunoblots with anti-insulin receptor (IR), phospho-Akt, Akt, phospho-ERK, and ERK antibodies, or first immunoprecipitated with anti-IR antibody and immunoprecipitates (IP) then analyzed by Western immunoblotting with anti-phosphotyrosine and anti-IR antibodies after transfer to nitrocellulose membranes. Following incubation of blots with primary antibodies, immunoreactive proteins were detected by enhanced chemiluminescence after a secondary incubation with HRP-conjugated secondary antisera. […]

insulin receptor (IR) [3] = target: T2, insulin receptor (IR); test: IR expression and activation, Western immunoblot in MCF-7 cells; type: cell-based; parameters: whole-cell lysates were prepared at the indicated times and processed directly for Western immunoblots with anti-insulin receptor (IR); endogenous in cells; host or cells: MCF-7 (control and Herstatin-expressing clones)
Description: as §2
Methods. Cell lines, expression vectors, protein purification, pull down assays, antibodies, Western blot analysis and ELISA assays were as described under EXAMPLE I, herein above. Insulin was added either to MCF-7 breast carcinoma cells, or to an MCF-7 cell line stably transfected with a Herstatin expression vector, to determine whether Herstatin expression affects IR expression, and/or insulin-stimulated IR signal transduction.
Results. […] Control and Herstatin-expressing MCF-7 cells were grown in complete medium prior to an overnight incubation in serum-free medium. Insulin was then added to the control and Herstatin-expressing cells and whole-cell lysates were prepared at the indicated times and processed directly for Western immunoblots with anti-insulin receptor (IR), phospho-Akt, Akt, phospho-ERK, and ERK antibodies, or first immunoprecipitated with anti-IR antibody and immunoprecipitates (IP) then analyzed by Western immunoblotting with anti-phosphotyrosine and anti-IR antibodies after transfer to nitrocellulose membranes. Following incubation of blots with primary antibodies, immunoreactive proteins were detected by enhanced chemiluminescence after a secondary incubation with HRP-conjugated secondary antisera. […]

3T3 parental cells = test: Herstatin cell binding ELISA on parental cells; settings: NIH-3T3 parental cells, 2 hrs on ice
Description: as §4, §5, §6

[4] = Herstatin-expressing MCF-7 cells vs control MCF-7

**Q.** Which results are given for COc1cc2ncnc(Nc3cccc(Cl)c3)c2cc1OC [AS1478]?
**A.** increase in insulin receptor (IR) (insulin receptor): does not Affect Insulin Signaling or Lead to an Increase in IR; effect on insulin signaling (insulin signaling): did not affect insulin signaling

**Q.** With COc1cccc(-c2cc(=O)c3ccccc3o2)c1N [PD-98059] as the compound, how does the “inhibition of insulin-stimulated glucose uptake” value (MAPK kinase (MEK)) read?
**A.** significant inhibition

**Q.** For N#CC(=C(/N)Sc1ccccc1N)/C(C#N)=C(/N)Sc1ccccc1N [U-0216], which “inhibition of insulin-stimulated glucose uptake” value (MAPK kinase (MEK)) is on record?
**A.** significant inhibition

**Q.** What does the source list for “Herstatin: secreted product of an HER-2 alternative transcript; cell surface receptor isoform (intron fusion protein), polypeptides of SEQ ID NO:2”?
**A.** decrease in IGF-IR expression (IGF-IR): ~4 fold; IRS-2 levels [1]: slight decrease; apparent serine phosphorylation of IRS-2 [1]: decrease; apparent serine phosphorylation state of IRS-1 [1]: decrease; relative expression of Shc isoforms [1]: alters the relative expression of Shc isoforms; relative expression ratio of ERK1 and ERK2 [1]: increases the relative expression ratio of ERK1 and ERK2; Herstatin binding to cells expressing IR (insulin receptor (IR) [2]): binds at nM concentrations; effect on insulin-stimulated activation of the P13K/Akt pathway (P13K/Akt pathway): little effect; accumulation of pro-IR (insulin receptor (IR) [3]; [4]): induce the accumulation of pro-IR; up-regulation of basal IR expression (insulin receptor (IR) [3]; [4]): several-fold; IR activation by insulin (insulin receptor (IR) [3]; Herstatin-expressing MCF-7 cells, insulin added after overnight serum-free, anti-phosphotyrosine blot of IR IP): up-regulated IR activation; Herstatin binding to 3T3 parental cells (3T3 parental cells): but not to 3T3 parental cells
